Measured values from PMC11473416, “Coumarin-chalcone derivatives as dual NLRP1 and NLRP3 inflammasome inhibitors targeting oxidative stress and inflammation in neurotoxin-induced HMC3 and BE(2)-M17 cell models of Parkinson's disease” (Frontiers in Aging Neuroscience, 2024).
Where two headings read alike, the source gives them in different places.

Columns and labels:
[1] = DPPH free radical scavenging activity; conditions: 10–160 μM, 30 min, room temperature
Protocol: Stable 1,1-diphenyl-2-picrylhydrazyl (DPPH) radical in ethanol (100 μM; Sigma-Aldrich) was used to measure the antioxidant activity of these LM compounds. After addition of quercetin (positive control) or LM compound (10–160 μM), the mixture was vortexed for 15 s and incubated at room temperature for 30 min. Subsequently, the mixture was measured spectrophotometrically at 517 nm (Multiskan GO microplate spectrophotometer; Thermo Fisher Scientific). The free radical scavenging activity was calculated as the percentage of DPPH discoloration using the formula 1 – (absorbance of sample/absorbance of control) × 100%, with half maximal effective concentration (EC50) calculated using the interpolation method.

[2] = system: NQO1; assay: Western blot NQO1 in MPP^+-treated BE(2)-M17 cells; type: cell-based, human; conditions: BE(2)-M17, compound 10 μM + 0.62 mM MPP^+; MPP^+ alone 53%; untreated = 100%
Protocol: HMC3 (2 × 10^5/6-well) or BE(2)-M17 (4 × 10^5/6-well) cells were lysed in buffer (composition: 50 mM Tris-HCl pH8.0, 2 mM EDTA pH8.0, 150 mM NaCl, 0.5% sodium deoxycholate, 0.1% SDS, 50 mM NaF, 1% NP40) containing the protease and/or phosphatase inhibitor cocktail (Sigma-Aldrich). After sonication, the lysates were centrifuged (12,000 × g for 10 min at 4°C) and protein concentrations determined (Bradford protein assay; Bio-Rad, Hercules, CA, USA). […] The immune complexes were detected using horseradish peroxidase (HRP)-conjugated goat anti-mouse or goat anti-rabbit IgG antibody (1:5,000; GeneTex) and chemiluminescent HRP substrate (Millipore, Burlington, MA, USA). Immunoreactive bands were captured (ImageQuant™ LAS 4000, GE Healthcare, Chicago, IL, USA) and quantified (Multi Gauge V3.0 software, Fujifilm, Tokyo, Japan).

[3] = system: MPP^+-activated HMC3 cells; assay: cell viability (MTT) in MPP^+-activated HMC3 cells; type: cell-based; conditions: Homo sapiens; HMC3, compound 10 μM 8 h pre-treatment, then 4 mM MPP^+ 20 h; MPP^+ alone 63%; MPP^+-untreated = 100%
Protocol: To examine anti-inflammatory potential of LM compounds, HMC3 cells were plated into six-well (2 × 10^5/well) dishes, grown for 20 h, and pre-treated with compounds (10 μM) for 8 h before 4 mM MPP^+ addition for 20 h. The cell viability was evaluated by MTT assay as described, and the release of nitric oxide (NO) in cell culture medium was examined by Griess reagent kit (Thermo Fisher Scientific) based on a classic protocol.

[4] = system: BCL2; assay: Western blot BCL2 in MPP^+-treated BE(2)-M17 cells; type: cell-based, human; conditions: BE(2)-M17, compound 10 μM + 0.62 mM MPP^+; MPP^+ alone 70%; untreated = 100%
Protocol: (§1) HMC3 (2 × 10^5/6-well) or BE(2)-M17 (4 × 10^5/6-well) cells were lysed in buffer (composition: 50 mM Tris-HCl pH8.0, 2 mM EDTA pH8.0, 150 mM NaCl, 0.5% sodium deoxycholate, 0.1% SDS, 50 mM NaF, 1% NP40) containing the protease and/or phosphatase inhibitor cocktail (Sigma-Aldrich). After sonication, the lysates were centrifuged (12,000 × g for 10 min at 4°C) and protein concentrations determined (Bradford protein assay; Bio-Rad, Hercules, CA, USA). Aliquots of protein (20 μg) were separated by electrophoresis using 10%−12% SDS–polyacrylamide gel followed by transfer to a polyvinylidene fluoride (PVDF) membrane. […] The immune complexes were detected using horseradish peroxidase (HRP)-conjugated goat anti-mouse or goat anti-rabbit IgG antibody (1:5,000; GeneTex) and chemiluminescent HRP substrate (Millipore, Burlington, MA, USA). Immunoreactive bands were captured (ImageQuant™ LAS 4000, GE Healthcare, Chicago, IL, USA) and quantified (Multi Gauge V3.0 software, Fujifilm, Tokyo, Japan).

[5] = design: method as in Chiu et al., 2021; conditions: in vivo pharmacokinetic assessment ref Chiu et al., 2021; cited from earlier work
[6] = system: BDNF; assay: Western blot BDNF in MPP^+-treated BE(2)-M17 cells; type: cell-based, human; conditions: BE(2)-M17, compound 10 μM + 0.62 mM MPP^+; MPP^+ alone 78%; untreated = 100%
Protocol: as §1

[7] = system: p-CREB (Ser133); assay: Western blot p-CREB (Ser133) in MPP^+-treated BE(2)-M17 cells; type: cell-based, human; conditions: BE(2)-M17, compound 10 μM + 0.62 mM MPP^+; MPP^+ alone 83%; untreated = 100%
Protocol: as §1

[8] = design: method as in Huang C. C. et al., 2021; conditions: parallel artificial membrane permeability assay ref Huang C. C. et al., 2021; cited from earlier work
[9] = system: IL-1β; assay: Western blot IL-1β in MPP^+-stimulated HMC3 cells; type: cell-based, human; conditions: HMC3, 4 mM MPP^+ alone; untreated = 100%
Protocol: as §1

[10] = system: TNF-α; assay: Western blot TNF-α in MPP^+-stimulated HMC3 cells; type: cell-based, human; conditions: HMC3, 4 mM MPP^+ alone; untreated = 100%
Protocol: as §1

[11] = system: CASP1; assay: Western blot CASP1 in MPP^+-stimulated HMC3 cells; type: cell-based, human; conditions: HMC3, 4 mM MPP^+ alone; untreated = 100%
Protocol: as §1

[12] = system: caspase-6; assay: caspase-6 activity assay in MPP^+-treated BE(2)-M17 cells; type: cell-based, human; conditions: BE(2)-M17, 0.62 mM MPP^+ alone; untreated = 100%
Protocol: (§2) BE(2)-M17 cells were plated onto six-well (4 × 10^5/well) and treated with retinoic acid, LM compounds (10 μM), and MPP^+ as described. Cells were collected on day 7 and lysed by six freeze/thaw cycles. Types of substrates applied were: Ac-Tyr-Val-Ala-Asp-7-amino-4-trifluoromethyl coumarin (YVAD-AFC) for caspase-1, Ac-Val-Glu-Ile-Asp-7-amino-4-trifluoromethyl coumarin (VEID-AFC) for caspase-6 (BioVision, Milpitas, CA, USA), and Ac-Asp-Glu-Val-Asp-7-amido-4-methylcoumarin (DEVD-AMC) for caspase-3 (Sigma-Aldrich). The reaction mixtures were incubated for 1.5 h at 37°C per the manufacturer's instructions. The fluorescence intensity at 400 nm excitation and 505 nm emission (caspase-1 and caspase-6) or 360 nm excitation and 460 nm emission (caspase-3) wavelengths were recorded (BioTek FLx800).

[13] = system: IL-6; assay: Western blot IL-6 in MPP^+-stimulated HMC3 cells; type: cell-based, human; conditions: HMC3, 4 mM MPP^+ alone; untreated = 100%
Protocol: as §1

[14] = system: NLRP3; assay: Western blot NLRP3 in MPP^+-stimulated HMC3 cells; type: cell-based, human; conditions: HMC3, 4 mM MPP^+ alone; untreated = 100%
Protocol: as §1

[15] = system: iNOS; assay: Western blot iNOS in MPP^+-stimulated HMC3 cells; type: cell-based, human; conditions: HMC3, 4 mM MPP^+ alone; untreated = 100%
Protocol: as §1

[16] = system: caspase-1; assay: caspase-1 activity assay in MPP^+-treated BE(2)-M17 cells; type: cell-based, human; conditions: BE(2)-M17, 0.62 mM MPP^+ alone; untreated = 100%
Protocol: as §2

With `Cc1ccc(/C=C/C(=O)c2c(O)c3ccccc3oc2=O)cc1` [LM-016] as the compound, how does the EC50 [1] read?
Its EC50 is 127 µM.

What about the NQO1 level [2] of the same compound?
Its NQO1 level is 81–86%.

What about the viability at 10 µM [3] of the same compound?
The viability at 10 µM was 81 to 86%.

Which results are given for `CN(C)c1ccc(/C=C/C(=O)c2c(O)c3ccccc3oc2=O)cc1` [LM-021, (E)-3-(3-(4-(dimethylamino)phenyl)acryloyl)-4-hydroxy-2H-chromen-2-one]?
BCL2 level [4]: 99–110%; EC50 [1]: 65 µM; bioavailability and BBB penetration potential [5]: good bioavailability and BBB penetration potential; BDNF level [6]: 109–110%; p-CREB (Ser133) level [7]: 102–105%

With `O=C(/C=C/c1ccccc1O)c1c(O)c2ccccc2oc1=O` [LM-036] as the compound, how does the BCL2 level [4] read?
Its BCL2 level is 99–110%.

What about the BDNF level [6] of the same compound?
The BDNF level was 109–110%.

And the NQO1 level [2]?
The NQO1 level was 81–86%.

And the “bioavailability and BBB penetration potential” value [8]?
The value was “good bioavailability and BBB penetration potential”.

And the “p-CREB (Ser133) level” value [7]?
The value was 102–105%.

With `C[n+]1ccc(-c2ccccc2)cc1` [MPP^+, 1-methyl-4-phenyl pyridinium, reference compound] as the compound, how does the IL-1β expression [9] read?
Its IL-1β expression is 326%.

And the TNF-α expression [10]?
The TNF-α expression was 223%.

What about the CASP1 expression [11] of the same compound?
The CASP1 expression was 218%.

What about the caspase-6 activity [12] of the same compound?
Its caspase-6 activity is 116%.

And the IL-6 expression [13]?
Its IL-6 expression is 182%.

What about the NLRP3 expression [14] of the same compound?
The NLRP3 expression was 233%.

What about the iNOS expression [15] of the same compound?
Its iNOS expression is 156%.

And the caspase-1 activity [16]?
The caspase-1 activity was 112%.
